# Test results as given in PMC8453635, “Piperidine Azasugars Bearing Lipophilic Chains: Stereoselective Synthesis and Biological Activity as Inhibitors of Glucocerebrosidase (GCase)” (The Journal of Organic Chemistry, 2021).
# Target: T1, GCase (Homo sapiens, UniProt P04062)
# T1 construct: screened toward GCase in leukocytes isolated from healthy donors (controls); from tissue; host or cells: leukocytes isolated from healthy donors, disrupted by sonication
# T1 sequence (P04062 40-536): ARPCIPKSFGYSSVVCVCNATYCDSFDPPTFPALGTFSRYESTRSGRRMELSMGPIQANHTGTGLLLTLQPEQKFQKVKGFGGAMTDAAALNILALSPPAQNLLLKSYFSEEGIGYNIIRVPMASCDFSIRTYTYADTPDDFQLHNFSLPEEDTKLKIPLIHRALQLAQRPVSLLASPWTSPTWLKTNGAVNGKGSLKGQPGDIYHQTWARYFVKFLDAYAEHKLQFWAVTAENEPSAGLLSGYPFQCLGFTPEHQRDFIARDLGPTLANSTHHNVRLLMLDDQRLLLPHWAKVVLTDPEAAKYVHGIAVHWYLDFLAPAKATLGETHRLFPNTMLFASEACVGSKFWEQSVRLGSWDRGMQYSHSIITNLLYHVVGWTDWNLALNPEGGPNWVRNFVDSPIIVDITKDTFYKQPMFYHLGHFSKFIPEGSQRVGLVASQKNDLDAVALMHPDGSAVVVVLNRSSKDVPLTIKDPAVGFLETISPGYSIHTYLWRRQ
# Test: GCase inhibition in human leukocyte homogenates
# Type: biochemical
# Details: for GCase inhibition [%]: human leukocytes extracts incubated with azasugars (1 mM); for IC50: human leukocytes from healthy donors, substrate 4-methylumbelliferyl-β-D-glucoside 3.33 mM
# Method: Compounds 14, 15, and 33·HCl were then tested at 1 mM for GCase inhibition in human leukocyte homogenates. The results obtained were compared with data of previously reported compounds 9, 11, and 12.[12],[16],[17]
# The compounds 14, 15, and 33·HCl were screened toward GCase in leukocytes isolated from healthy donors (controls). Isolated leukocytes were disrupted by sonication, and a micro BCA protein assay kit (Sigma-Aldrich) was used to determine the total protein amount for the enzymatic assay, according to the manufacturer instructions. Enzyme activity was measured in a flat-bottomed 96-well plate. Compound solution (3 μL), 4.29 μg/μL leukocytes homogenate (7 μL), and substrate 4-methylumbelliferyl-β-D-glucoside (3.33 mM, 20 μL, Sigma-Aldrich) in citrate/phosphate buffer (0.1:0.2, M/M, pH 5.8) containing sodium taurocholate (0.3%) and Triton X-100 (0.15%) at 37 °C were incubated for 1 h. The reaction was stopped by addition of sodium carbonate (200 μL; 0.5 M, pH 10.7) containing Triton X-100 (0.0025%), and the fluorescence of 4-methylumbelliferone released by β-glucosidase activity was measured in SpectraMax M2 microplate reader (λex = 365 nm, λem = 435 nm; Molecular Devices). Percentage GCase inhibition is given with respect to the control (without compound). Data are mean SD (n = 3).
# The IC50 values of inhibitors against GCase were determined by measuring the initial hydrolysis rate with 4-methylumbelliferyl-β-D-glucoside (3.33 mM). Data obtained were fitted by using the appropriate Equation (for more details, see the Supporting Information section).
# Percentage of GCase inhibition of compounds 14, 15 and 33.HCl towards human GCase Percentage of GCase inhibition of the whole collection of compounds in human leukocytes extracts incubated with iminosugars at 1 mM concentration.
# IC50 determination: The IC50 values of inhibitors against GCase were determined by measuring the initial hydrolysis rate with 4-methylumbelliferyl-β-D-glucoside (3.33 mM). Data obtained were fitted to the following equation using the Origin Microcal program. where Vi/Vo, represent the ratio between the activity measured in the presence of the inhibitor (Vi) and the activity of the control without the inhibitor (V0), “x” the inhibitor concentration, Max and Min, the maximal and minimal enzymatic activity observed, respectively.
# (also on this page, place not known: Min IC x MinMax Vo Vi slope + […] […] […] […] […] […]+ −= 50 1 (V i) activity nmoli/mg/h)
# (1 picture or pasted object on this page, not shown here)
Compound,GCase inhibitory activity relative to monoalkylated counterpart 12 (comparison of IC50 values),GCase inhibition [%],IC50 [µM]
"CCCCCCCC[C@@H]1[C@@H](O)[C@H](O)[C@H](O)CN1CCCCCCCC [compound 15, (2R,3R,4R,5R)-1,2-Dioctylpiperidine-3,4,5-triol]",twofold more active,100,15 ± 4
"CCCCCCCC[C@@H]1[C@@H](O)[C@H](O)[C@H](O)CN1C(CCCCCCC)CCCCCCC.Cl [compound 33·HCl, (2R,3R,4R,5R)-2-Octyl-1-(pentadecan-8-yl)-piperidine-3,4,5-triol Hydrochloride]",,75,130 ± 15
"CCCCCCCC[C@H]1[C@@H](O)[C@H](O)[C@H](O)CN1CCCCCCCC [compound 14, (2S,3R,4R,5R)-1,2-Dioctylpiperidine-3,4,5-triol]",,100,100 ± 9
